A short description of experiment [1]: cells. The experiment is classed as functional.
Experiment [2] is described as follows: Luminescence Cell-Based Dose Response HTS to Identify Inhibitors of 5'UTR Stem-Loop Driven Prion Protein mRNA Translation in H4 Neuroglioblastoma Cells. [Related pubchem assays: 1827 (Project Summary), 1813 (Primary HTS)]. The experiment is classed as functional.
The nature of experiment [3]: alpha-synuclein stem-loop luciferase translation blockers – H4 neuroglioma cells, luminescence, confirmation (AID 1988). The experiment is classed as functional, cell-based.
The nature of experiment [4]: luciferase reporter signal suppression in cells – H4 neuroglioma cells, luminescence, dose response (AID 1990). In kind it is functional, cell-based. Background: Reporter assays use an easily measured gene product as a stand-in for the process of interest.
Experiment [5] deals with T1, Heat shock factor protein 1 (Mus musculus, UniProt P38532).
T1 sequence (P38532 whole entry): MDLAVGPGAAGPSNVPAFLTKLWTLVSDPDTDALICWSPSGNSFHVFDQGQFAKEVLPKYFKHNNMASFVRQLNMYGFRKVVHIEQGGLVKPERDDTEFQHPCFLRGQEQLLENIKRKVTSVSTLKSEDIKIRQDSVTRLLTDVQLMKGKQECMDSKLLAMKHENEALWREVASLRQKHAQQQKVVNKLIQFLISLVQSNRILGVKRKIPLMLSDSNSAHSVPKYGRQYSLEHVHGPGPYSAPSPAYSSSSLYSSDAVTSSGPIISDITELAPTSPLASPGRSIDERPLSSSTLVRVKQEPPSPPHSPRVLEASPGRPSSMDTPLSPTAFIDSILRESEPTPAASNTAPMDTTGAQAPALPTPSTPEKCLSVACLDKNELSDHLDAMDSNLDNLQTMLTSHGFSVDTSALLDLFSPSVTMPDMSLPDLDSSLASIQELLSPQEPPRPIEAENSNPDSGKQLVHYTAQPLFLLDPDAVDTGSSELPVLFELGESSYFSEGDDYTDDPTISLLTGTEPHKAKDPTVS
The experiment can be described thus: decrease of HSF1-responsive luciferase luminescence – cell-based, NIH3T3, dose retest, confirmation (AID 2382).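 Note: NIH3T3 fibroblasts with HSF1-driven luciferase reporter stressed by proteasome inhibitor MG132; luminescence from HSF1-driven luciferase expression after 8 hours of MG132 stress.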 In kind it is functional.

The target of experiment [6] is T2, Protein skinhead-1 (Caenorhabditis elegans, UniProt P34707).
T2 sequence (P34707 whole entry): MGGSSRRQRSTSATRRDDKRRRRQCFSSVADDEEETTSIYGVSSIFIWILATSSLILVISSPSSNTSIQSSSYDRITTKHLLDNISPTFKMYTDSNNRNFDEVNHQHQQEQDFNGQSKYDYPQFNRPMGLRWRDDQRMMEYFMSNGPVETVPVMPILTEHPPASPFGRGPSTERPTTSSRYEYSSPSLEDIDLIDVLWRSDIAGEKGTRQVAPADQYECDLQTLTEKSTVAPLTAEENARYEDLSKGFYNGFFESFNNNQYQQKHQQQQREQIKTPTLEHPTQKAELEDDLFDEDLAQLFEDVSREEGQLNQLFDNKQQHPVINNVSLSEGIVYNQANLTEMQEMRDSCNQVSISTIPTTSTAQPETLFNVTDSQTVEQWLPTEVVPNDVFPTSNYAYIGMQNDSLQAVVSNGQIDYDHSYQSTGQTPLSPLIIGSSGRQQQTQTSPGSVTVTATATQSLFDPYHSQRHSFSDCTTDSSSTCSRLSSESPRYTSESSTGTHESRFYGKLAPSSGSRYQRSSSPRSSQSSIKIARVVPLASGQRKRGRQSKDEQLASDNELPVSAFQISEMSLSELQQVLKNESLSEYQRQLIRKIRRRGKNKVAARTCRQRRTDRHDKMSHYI
The experiment is classed as functional.

Experiment [7] deals with T3, RNA-binding protein pos-1 (Caenorhabditis elegans, UniProt G5EF15).
T3 sequence (G5EF15 whole entry): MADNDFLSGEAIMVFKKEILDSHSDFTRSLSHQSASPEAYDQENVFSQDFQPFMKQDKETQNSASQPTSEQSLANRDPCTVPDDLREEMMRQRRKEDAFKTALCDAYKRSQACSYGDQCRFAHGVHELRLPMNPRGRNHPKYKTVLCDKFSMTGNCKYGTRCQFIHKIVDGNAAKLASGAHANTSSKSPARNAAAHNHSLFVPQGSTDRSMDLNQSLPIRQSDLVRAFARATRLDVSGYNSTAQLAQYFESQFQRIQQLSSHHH
The experiment can be described thus: disruptors of C. elegans POS-1 RNA interaction – biochemical, fluorescence polarization, dose response (AID 1964). (In general: Polarisation of emitted light reports the rotation of a fluorescent probe.)

The target in experiment [8] is T4, Zinc finger protein mex-5 (Caenorhabditis elegans, UniProt Q9XUB2).
T4 sequence (Q9XUB2 whole entry): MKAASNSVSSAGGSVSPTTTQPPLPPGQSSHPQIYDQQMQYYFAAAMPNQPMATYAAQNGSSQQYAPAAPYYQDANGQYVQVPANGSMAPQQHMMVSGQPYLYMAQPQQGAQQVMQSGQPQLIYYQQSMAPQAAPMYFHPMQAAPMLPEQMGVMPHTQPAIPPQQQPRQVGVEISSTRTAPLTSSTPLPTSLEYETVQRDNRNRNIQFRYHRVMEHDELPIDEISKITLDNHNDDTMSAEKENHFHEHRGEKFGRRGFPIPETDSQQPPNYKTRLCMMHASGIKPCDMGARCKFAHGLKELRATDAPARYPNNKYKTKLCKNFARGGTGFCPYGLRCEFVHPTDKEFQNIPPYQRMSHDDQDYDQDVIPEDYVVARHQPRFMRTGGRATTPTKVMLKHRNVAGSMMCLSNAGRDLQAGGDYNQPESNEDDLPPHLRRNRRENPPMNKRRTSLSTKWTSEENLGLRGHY
The experiment in a line: potency of MEX-5 RNA-binding blockers – biochemical, C. elegans, fluorescence polarization, dose response (AID 1960).

Experiment [9] concerns the target Cytochrome P450 2C9 (Homo sapiens, UniProt P11712).
Experiment [10] has as its target Cytochrome P450 3A4 (Homo sapiens, UniProt P08684).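 Note: CYP3A4 tested as one member of a cytochrome P450 panel screen.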
Experiment [11] concerns the target T5, Cytochrome P450 1A2 (Homo sapiens, UniProt P05177).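 Note: PubChem cytochrome P450 panel assay, CYP1A2 panel member.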
T5 sequence (P05177 whole entry): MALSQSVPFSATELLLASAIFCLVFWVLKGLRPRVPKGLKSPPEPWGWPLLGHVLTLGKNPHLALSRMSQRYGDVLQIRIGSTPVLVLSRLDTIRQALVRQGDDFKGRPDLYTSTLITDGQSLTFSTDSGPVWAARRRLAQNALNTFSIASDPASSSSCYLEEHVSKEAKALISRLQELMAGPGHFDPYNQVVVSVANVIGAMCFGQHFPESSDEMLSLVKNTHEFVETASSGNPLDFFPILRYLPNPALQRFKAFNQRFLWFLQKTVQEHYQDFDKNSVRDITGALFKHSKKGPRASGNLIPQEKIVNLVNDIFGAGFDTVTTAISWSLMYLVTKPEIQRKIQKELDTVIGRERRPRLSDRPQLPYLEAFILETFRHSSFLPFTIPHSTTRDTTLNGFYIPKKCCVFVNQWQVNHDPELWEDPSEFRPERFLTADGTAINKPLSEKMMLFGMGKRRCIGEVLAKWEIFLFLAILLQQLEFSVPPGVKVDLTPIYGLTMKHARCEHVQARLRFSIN

Experiment [12] is described as follows: Trypanosoma cruzi growth suppression in host cells – NIH3T3 host cells, beta-gal luminescence, confirmation (AID 2044).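 Note: intracellular parasites grown in NIH/3T3 mouse fibroblasts as host cells; luminescent beta-galactosidase reporter signal from transgenic T. cruzi replicating inside host cells; inhibitors lower the luminescence signal.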 In kind it is functional, cell-based.
Experiment [13] can be described thus: NIH3T3 cell viability loss – ATP luminescence, mouse fibroblasts, counter-screen, dose response (AID 2010).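 Note: cells exposed to compound for about 90 hours before reading.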 In kind it is functional, cell-based. (A counterscreen serves to expose hits that act by an unwanted route or on another target.)
The nature of experiment [14]: Luminescence Cell-Based Dose Retest to Confirm Inhibitors of Cancer Stem Cells. [Related pubchem assays (depositor defined):AID2717, AID2721]. The experiment is classed as functional. Conditions: Homo sapiens.

Counter-ions that a name gives are not always drawn. Activity calls are given as the source filed them. Cut-off read from the data, not from the text of the source, for most assays here: actives have a measured EC50 and inactives only a lower limit.

Cytochrome P450 2C9, sequence (P11712 whole entry): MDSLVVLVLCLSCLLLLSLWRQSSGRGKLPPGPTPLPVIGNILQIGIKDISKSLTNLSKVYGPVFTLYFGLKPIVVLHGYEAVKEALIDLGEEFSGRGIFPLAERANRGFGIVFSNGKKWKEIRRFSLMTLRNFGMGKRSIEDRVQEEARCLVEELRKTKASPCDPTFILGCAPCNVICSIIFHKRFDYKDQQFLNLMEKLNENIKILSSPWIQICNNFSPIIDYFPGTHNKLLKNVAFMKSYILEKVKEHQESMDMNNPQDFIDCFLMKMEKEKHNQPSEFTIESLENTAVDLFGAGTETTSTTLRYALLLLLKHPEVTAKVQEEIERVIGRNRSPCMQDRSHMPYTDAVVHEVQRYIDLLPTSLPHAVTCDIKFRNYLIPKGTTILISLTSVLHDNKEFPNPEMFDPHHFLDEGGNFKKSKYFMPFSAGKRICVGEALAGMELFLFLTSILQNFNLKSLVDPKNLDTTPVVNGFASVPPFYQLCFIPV
Cytochrome P450 3A4, sequence (P08684 whole entry): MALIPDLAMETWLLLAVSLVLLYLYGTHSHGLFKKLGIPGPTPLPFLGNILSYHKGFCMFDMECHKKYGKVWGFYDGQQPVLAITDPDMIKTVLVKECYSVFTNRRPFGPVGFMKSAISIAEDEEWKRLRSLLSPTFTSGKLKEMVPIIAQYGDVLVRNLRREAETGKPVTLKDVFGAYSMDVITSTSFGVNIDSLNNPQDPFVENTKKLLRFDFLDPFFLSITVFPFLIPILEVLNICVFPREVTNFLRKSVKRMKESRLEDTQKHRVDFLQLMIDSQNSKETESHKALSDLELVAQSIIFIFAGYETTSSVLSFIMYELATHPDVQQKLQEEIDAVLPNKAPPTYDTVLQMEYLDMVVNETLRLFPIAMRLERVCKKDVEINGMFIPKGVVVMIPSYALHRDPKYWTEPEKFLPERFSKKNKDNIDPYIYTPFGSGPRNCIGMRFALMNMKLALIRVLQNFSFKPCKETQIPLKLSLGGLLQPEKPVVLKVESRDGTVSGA

For orientation: IC50 means the point on the concentration scale where inhibition reaches its midpoint. For `CCOCCOC(=O)c1ccc(NC(=O)C2COc3ccccc3O2)cc1` (configuration not stated), the IC50 in experiment [1] is 15.2 µM (active).
As a reminder, the EC50 is the midpoint of the concentration-response curve. With `CCC(NC(C)c1ccccc1)=C1C(=O)NC(=O)NC1=O` (configuration not stated), the EC50 in experiment [2] was > 120 µM (not active); in experiment [3] it was 18.2 µM (active); in [4], 18 µM (active).
For `O=C(CCl)NC(Cc1ccccc1)c1ccccc1` (configuration not stated), the EC50 in experiment [5] was 17.1 µM (active).
Regarding `COc1ccccc1N1CCN(CCC(=O)Nc2ccc3c(c2)OCO3)CC1`, the IC50 in experiment [6] is > 100 µM (inactive).
In the case of `CCN1C(=O)NC(=O)/C(=C\c2cn(CC(=O)O)c3ccccc23)C1=O`, the EC50 in [7] and in experiment [8] was > 300 µM (not active) throughout.
Turning to `CSc1ccc(CN(C)Cc2cc(=O)oc3c(C)c(C)ccc23)cc1`, the EC50 in experiment [5] is given as > 195 µM (not active).
Usually AC50 stands for the concentration giving half of the maximal activity seen. `O=C(Nc1ccc(Cl)c(C(F)(F)F)c1)C1CCCN(S(=O)(=O)c2c[nH]cn2)C1` (configuration not stated): the AC50 in [9] was 0.501 µM (inconclusive).
Regarding `COc1ccc(NC(=O)c2ccc(C(=O)c3cc(OC)ccc3OC)cc2)cc1`, the AC50 in [9] was 22.4 µM (inconclusive).
Regarding `CC(C)NC(=O)N1CCCC2(CCN(C(=O)Oc3ccccc3)CC2)C1`, the AC50 in experiment [10] is 25.1 µM (inconclusive); in experiment [11] it was 12.6 µM (inconclusive); in [9], 12.6 µM (inconclusive).
Regarding `COc1ccc2c3c1O[C@H]1C[C@@H](O)C=C[C@@]31CCN(C)C2` [GALANTAMINE HYDROBROMIDE], the EC50 in experiment [2] is > 120 µM (not active); in [3], 11.1 µM (active); in experiment [4], > 120 µM (not active).
Regarding `Cn1c(=O)c2nc(N/N=C(/C#N)C(N)=O)[nH]c2n(C)c1=O`, the EC50 was > 300 µM (not active) in experiment [7] and 52.4 µM (active) in experiment [8].
With `CCn1ncc2c(OCc3ccc(C#N)cc3)cc(C)nc21`, the figures for the EC50 in [2], in [3] and in experiment [4] were 24.9 µM (active), 61.8 µM (active) and 21.5 µM (active), respectively.
For the compound `CCO/C(C)=N/n1c2nc3ccccc3nc2c2c(=O)n(CC(C)C)c(C)nc21`, in experiment [9], the AC50 is 12.6 µM (inconclusive).
`CCCCNC(=O)OCC(CC)NC(=O)OCC(C)C` (configuration not stated): the IC50 in [6] was > 100 µM (inactive).
Take `Cc1ccc(CSc2nc3ccccc3c(=O)n2Cc2ccco2)cc1`: in [6], the IC50 was > 100 µM (inactive).
As to `COc1ccc(C2C3=C(N=C4SCC(=O)N42)c2ccccc2CC3)cc1OC` (configuration not stated), in experiment [6], the IC50 was > 100 µM (inactive).
With `CC(C)CC(=O)Nc1c2c(nn1-c1ccc(F)cc1)C[S+]([O-])C2` (configuration not stated), the half-maximal effective concentration (EC50) in experiment [5] is > 195 µM (not active).
`NS(=O)(=O)c1ccc(/N=N\c2ncccc2O)cc1`: the AC50 in experiment [10] was 3.98 µM (inconclusive); in experiment [11] it was 2 µM (inconclusive); in experiment [9], 6.31 µM (inconclusive).
Take `COc1ccc(S(=O)(=O)N2CCCCCC2)cc1NC(=O)Cc1ccccc1F`: the EC50 is > 120 µM (not active) in experiment [2], > 120 µM (not active) in experiment [3] and 76.1 µM (active) in experiment [4].
`Clc1ccc(-c2cnc3ccccc3n2)cc1`: the IC50 in experiment [6] is 92 µM (inactive).
Regarding `C=CCNC(=S)NNC(=O)c1cc(-c2cccnc2)nc2ccccc12`, in experiment [5], the EC50 is > 195 µM (not active).
For `CCc1nc2ccccc2c(C(=O)OCC(=O)N(CCOC)c2c(N)n(Cc3ccccc3)c(=O)[nH]c2=O)c1C`, the IC50 in experiment [6] was > 100 µM (inactive).
`Cc1oc(/N=C/c2ccc(O)cc2O)c(C#N)c1C`: the EC50 in [7] and in experiment [8] was > 300 µM (not active) each time.
As for `CCn1c(CSc2nnc(-c3ccncc3)n2CCOC)nc2cc(C(=O)O)ccc21`, the IC50 in experiment [6] is > 100 µM (inactive).
Take `O=C(NNc1nc2ccccc2s1)Nc1ccccc1`: the EC50 in experiment [5] is recorded as > 195 µM (not active).
Take `COC(=O)C1=C(N)OC2=C(C(=O)CC(C)(C)C2)C1c1cccnc1` (configuration not stated): the IC50 in [1] is > 50 µM (active).
Take `Cc1ccccc1C1=N/C(=C/c2cccs2)C(=O)O1`: the EC50 in experiment [7] was > 300 µM (not active); in [8] it was 39.1 µM (active).
For the compound `CCN(CC)CCN/C=C1\C(=O)NC(=O)N(CCc2ccccc2)C1=O`, the EC50 in [7] and in [8] was > 300 µM (not active) in each case.
Consider `Cc1nc2c(sc3nc(N4CCOCC4)c4c(c32)CC(C)(C)OC4)c(-c2ccc(Cl)cc2)c1C(=O)O`, for which the EC50 in experiment [5] is listed as > 195 µM (not active).
In the case of `Nc1ccc(-n2nc3ccccc3n2)cc1`, the EC50 in experiment [2] is 67 µM (active); in [3], 5.68 µM (active); in experiment [4] it was 31.8 µM (active).
`Cc1csc2nc(CNS(=O)(=O)c3ccc4c(c3)CCCC4)cn12`: in experiment [6], the IC50 is > 100 µM (inactive).
For the compound `N#CC1=C(N)Oc2cc(N)ccc2C1c1ccccc1Cl` (configuration not stated), the EC50 in experiment [5] is given as > 195 µM (not active).
In the case of `Fc1ccc([C@H]2CCNC[C@H]2COc2ccc3c(c2)OCO3)cc1`, the AC50 in experiment [9] is 2 µM (inconclusive).
On to `C/C(=N\Nc1cccc2cccnc12)c1ccccn1`, for which the EC50 was 2.51 µM (active) in [12] and > 60 µM (not active) in [13]. Moreover, the IC50 in [1] is 13.8 µM (active).
For `CCCc1cc(-c2nc(-c3ccc(Cl)cc3)cs2)ccn1`, in experiment [14], the AC50 was 8.69 µM (active). In addition, the IC50 in experiment [6] is 21 µM (active).

For the origin of these results see ChEMBL document CHEMBL1201862, “PubChem BioAssay data set” (2004).
